Data on 31 compounds can be found in ChEMBL document CHEMBL3817779, “Identification of novel 2-aminothiazole conjugated nitrofuran as antitubercular and antibacterial agents” (Bioorg Med Chem Lett, 2016).

Converted amounts (≈) assume the structure as drawn.

Data set [1] has as its system Mycobacterium tuberculosis. Kind of data set: Antitubercular activity against Mycobacterium tuberculosis H37Rv assessed as inhibition of visible growth after 7 days by microbroth dilution method. Format: functional. Conditions: 168 h. (Broth dilution looks for growth in wells or tubes with falling amounts of substance.)
Data set [2] has as its system Staphylococcus aureus. Kind of data set: Antibacterial activity against Staphylococcus aureus ATCC 6538. Format: functional.
Data set [3] deals with Mycobacterium tuberculosis. Format: functional. Conditions: H37Ra ATCC 25177.
Data set [4] in a line: Aqueous solubility in water at room temperature sonicated for 30 mins followed by overnight incubation by HPLC analysis. Format: physicochemical.
Data set [5] relates to Vero. Kind of data set: Cytotoxicity against African green monkey Vero cells assessed as reduction in cell viability after 72 hrs by MTT assay. Format: cell-based. The settings on record: Chlorocebus sabaeus. For orientation: Tetrazolium assays rely on reduction of a dye to a coloured formazan, in cell work by metabolically active cells.
Data set [6] relates to Mycobacterium tuberculosis. Kind of data set: microbe, parasite or virus in culture. The settings on record: H37Ra ATCC 25177.
Description: Antitubercular activity against Mycobacterium tuberculosis H37Ra ATCC 25177
In data set [7] the test system is Mycobacterium tuberculosis. Format: functional. The settings on record: H37Ra ATCC 25177. The source holds these as a separate data set.
Data set [8] deals with Mycobacterium tuberculosis. Format: functional. Conditions: H37Ra ATCC 25177. The source holds these as a separate data set.
For data set [9], the system named is Staphylococcus aureus. Kind of data set: Antibacterial activity against Staphylococcus aureus ATCC 6538 at 20 uM relative to control. Format: functional.

As a reminder, the MIC is the least concentration at which growth counts as inhibited. On to `O=[N+]([O-])c1ccc(C2=NOC(c3ccc(N4CCC(Oc5ccc(OC(F)(F)F)cc5)CC4)cc3)C2)o1` (stereo unspecified), for which the minimum inhibitory concentration (MIC) in [1] is 0.024 µg/mL (≈ 0.0464 µM).
What is called inhibition is the relative decrease from the control value, in per cent. By solubility is commonly meant the dissolved amount per volume that the medium holds. The term IC50 denotes the concentration at which inhibition is half-maximal. The compound `O=C(Nc1cccc(-c2csc(NC(=O)c3ccc([N+](=O)[O-])o3)n2)c1)c1ccccc1` showed an MIC in data set [2] of 1.36 µg/mL (≈ 3.13 µM). Moreover, in data set [3], the inhibition at 1 µM is 98.9%. Besides, the concentration in solution in data set [4] (solubility at 0.5 h) was 1.27 µg/mL (≈ 2.92 µM). In [5], the IC50 is 50.2 µM. The MIC90 in [6] worked out at 0.27 µg/mL (≈ 0.621 µM). In addition, the inhibition at 10 µM in data set [7] was 99.5%.
Consider `O=C(Nc1nc(-c2ccccc2)cs1)c1ccc([N+](=O)[O-])o1`, for which the inhibition at 1 µM in data set [3] stood at 37.2%. The IC50 in data set [5] stood at 41.7 µM. The inhibition at 10 µM in [7] came to 99.5%.
Take `COc1cccc(-c2csc(NC(=O)c3ccc([N+](=O)[O-])o3)n2)c1`: the inhibition at 1 µM in data set [3] was 68.8%. Besides, the inhibition at 20 µM in [8] and in data set [9] was 99.5% throughout. Besides, in data set [5], the IC50 worked out at 58.7 µM. Moreover, the inhibition at 10 µM in data set [7] was determined as 100%.
`O=C(Nc1nc(-c2cccc(NC(=O)C3CCCCC3)c2)cs1)c1ccc([N+](=O)[O-])o1` gave an MIC in [2] of 2.75 µg/mL (≈ 6.24 µM). In addition, the inhibition at 1 µM in [3] was found to be 98.9%. In data set [4], this compound showed a solubility at 0.5 h of 3.46 µg/mL (≈ 7.86 µM). In [5], the IC50 stood at 21.9 µM. For the same compound, the MIC90 in [6] turned out to be 0.28 µg/mL (≈ 0.636 µM). Further, the inhibition at 10 µM in [7] stood at 99.1%.
In the case of `O=C(Nc1nc(-c2cccc(NC(=O)C3CCC3)c2)cs1)c1ccc([N+](=O)[O-])o1`, the inhibition at 1 µM in data set [3] was 1.9%.
Same read-out and setting: under `O=C(Nc1nc(-c2cccc(NC(=O)C3CCCC3)c2)cs1)c1ccc([N+](=O)[O-])o1` stands 0.2%.
The same measure, in the same setting: under `COc1cccc(-c2csc(NC(=O)c3ccc(N)o3)n2)c1` stands 5.2%.
With `CC(=O)Nc1cccc(-c2csc(NC(=O)c3ccc([N+](=O)[O-])o3)n2)c1`, in data set [3], the inhibition at 1 µM is 40.6%. Further, the IC50 in data set [5] was determined as 57.6 µM. The inhibition at 10 µM in data set [7] was found to be 99.4%.
Regarding `O=C(Nc1nc(-c2cccc(OC3CCCC3)c2)cs1)c1ccc([N+](=O)[O-])o1`, in [2], 4.99 µg/mL (≈ 12.5 µM) was the least that counted as inhibitory (MIC). Also, the inhibition at 1 µM in data set [3] worked out at 97.9%. Besides, the solubility at 0.5 h in data set [4] is 0.027 µg/mL (≈ 0.0676 µM). Also, the IC50 in data set [5] stood at 81.1 µM. In addition, in data set [6], the MIC90 amounted to 1 µg/mL (≈ 2.5 µM). Besides, in data set [7], the inhibition at 10 µM was 99.3%.
For `COc1ccc(C(=O)Nc2cccc(-c3csc(NC(=O)c4ccc([N+](=O)[O-])o4)n3)c2)cc1`, in [3], the inhibition at 1 µM is -2.7%.
Take `O=C(Nc1nc(-c2cccc(C(F)(F)F)c2)cs1)c1ccc([N+](=O)[O-])o1`: the inhibition at 1 µM in [3] was 67%. Moreover, the IC50 in [5] is 23.9 µM. Also, the inhibition at 10 µM in [7] worked out at 98.6%.
In the case of `O=C(Nc1cccc(-c2csc(NC(=O)c3ccc([N+](=O)[O-])o3)n2)c1)c1ccc(F)cc1`, in [3], the inhibition at 1 µM worked out at 39.8%.
With `Nc1cccc(-c2csc(NC(=O)c3ccc([N+](=O)[O-])o3)n2)c1`, in data set [3], the inhibition at 1 µM is -1.1%.
In data set [2], `O=C(Nc1nc(-c2cccc(NC(=O)C3CC3)c2)cs1)c1ccc([N+](=O)[O-])o1` came in with an MIC of 2.49 µg/mL (≈ 6.25 µM). Also, the inhibition at 1 µM in data set [3] is 99.3%. The same compound registered a solubility at 0.5 h in [4] of 0.47 µg/mL (≈ 1.18 µM). Also, the IC50 in data set [5] is 35.7 µM. Besides, the MIC90 in data set [6] stood at 0.5 µg/mL (≈ 1.26 µM). Also, the inhibition at 10 µM in data set [7] stood at 99.6%.
Take `O=C(Nc1nc(-c2cccc(Br)c2)cs1)c1ccc([N+](=O)[O-])o1`: the inhibition at 1 µM in data set [3] was determined as 70.4%. In [5], the IC50 was determined as 71 µM. Also, the inhibition at 10 µM in data set [7] amounted to 98.9%.
For `COc1cccc(-c2csc(NC(=O)c3ccc([N+](=O)[O-])cc3)n2)c1`, in that order: -0.4%, greater than 90 µM and -1.5%.
On the same counts, the results for `COc1ccc(-c2csc(NC(=O)c3ccc([N+](=O)[O-])o3)n2)cc1` are -8.3%, 63 µM and 99.3%.
In the case of `O=C(Nc1cccc(-c2csc(NC(=O)c3ccc([N+](=O)[O-])o3)n2)c1)c1cccc(C(F)(F)F)c1`, the inhibition at 1 µM in data set [3] was 13.7%.
Take `COc1ccccc1-c1csc(NC(=O)c2ccc([N+](=O)[O-])o2)n1`: the inhibition at 1 µM in [3] was -3%. The IC50 in [5] is 42 µM. The inhibition at 10 µM in [7] came out at 99.5%.
On the same counts, the results for `O=C(Nc1nc(-c2c(F)cc(F)cc2F)cs1)c1ccc([N+](=O)[O-])o1` are -4.1%, 19.9 µM and -10.1%.
Regarding `O=C(Nc1nc(-c2cccc(NS(=O)(=O)Cc3ccccc3)c2)cs1)c1ccc([N+](=O)[O-])o1`, in data set [2], the lowest concentration to inhibit growth (MIC) was 1.52 µg/mL (≈ 3.14 µM). The inhibition at 1 µM in data set [3] was 93.9%. In [4], the solubility at 0.5 h is 0.48 µg/mL (≈ 0.991 µM). Further, in data set [5], the IC50 worked out at 59.3 µM. In addition, the MIC90 in [6] stood at 0.61 µg/mL (≈ 1.26 µM).
As to `CC(C)(C)OC(=O)Nc1cccc(-c2csc(NC(=O)c3ccc([N+](=O)[O-])o3)n2)c1`, the inhibition at 1 µM in data set [3] amounted to 40%.
As for `Cc1cc(C)c(-c2csc(NC(=O)c3ccc([N+](=O)[O-])o3)n2)c(C)c1`, the inhibition at 1 µM in data set [3] came out at 0.9%. The IC50 in data set [5] was determined as 30.4 µM. For the same compound, in [7], the inhibition at 10 µM was -4.3%.
On to `COc1cccc(-c2csc(NC(=O)c3ccco3)n2)c1`, for which the inhibition at 1 µM in data set [3] worked out at 1.9%. Further, the half-inhibitory concentration (IC50) in data set [5] is greater than 90 µM. Besides, in data set [7], the inhibition at 10 µM is -0.9%.
`CC(C)Oc1cccc(-c2csc(NC(=O)c3ccc([N+](=O)[O-])o3)n2)c1` registered a minimum inhibitory concentration (MIC) in data set [2] of 4.67 µg/mL (≈ 12.5 µM). Also, the inhibition at 1 µM in data set [3] worked out at 97.8%. For the same compound, the concentration in solution in data set [4] (solubility at 0.5 h) came to 0.27 µg/mL (≈ 0.723 µM). The IC50 in data set [5] was 69.5 µM. In data set [6], this compound displayed an MIC90 of 0.47 µg/mL (≈ 1.26 µM). In addition, the inhibition at 10 µM in data set [7] was 99.2%.
Compound `CCOc1cccc(-c2csc(NC(=O)c3ccc([N+](=O)[O-])o3)n2)c1` yielded an MIC in data set [2] of 4.49 µg/mL (≈ 12.5 µM). The inhibition at 1 µM in data set [3] is 95.7%. For the same compound, the concentration in solution in data set [4] (solubility at 0.5 h) was 0.34 µg/mL (≈ 0.946 µM). The concentration for half-maximal inhibition (IC50) in data set [5] is greater than 90 µM. This compound gave an MIC90 in data set [6] of 0.9 µg/mL (≈ 2.5 µM). Moreover, in data set [7], the inhibition at 10 µM amounted to 99.4%.
As for `O=C(Nc1nc(-c2cccc(Cl)c2)cs1)c1ccc([N+](=O)[O-])o1`, in data set [3], the inhibition at 1 µM was determined as 40.5%. Besides, the IC50 in [5] was 43.7 µM. For the same compound, the inhibition at 10 µM in data set [7] was 99.2%.
As to `O=C(Nc1nc(-c2cccc(F)c2)cs1)c1ccc([N+](=O)[O-])o1`, the MIC in data set [2] was determined as 4.17 µg/mL (≈ 12.5 µM). Further, the inhibition at 1 µM in data set [3] worked out at 95.7%. This compound had a solubility at 0.5 h in data set [4] of 14.8 µg/mL (≈ 44.5 µM). For the same compound, in data set [5], the IC50 was 51.6 µM. The compound also showed an MIC90 in [6] of 0.83 µg/mL (≈ 2.49 µM). Further, the inhibition at 10 µM in data set [7] came out at 99.6%.
In the case of `CS(=O)(=O)Nc1cccc(-c2csc(NC(=O)c3ccc([N+](=O)[O-])o3)n2)c1`, the inhibition at 1 µM in [3] is -4.1%. Moreover, in data set [5], the IC50 was less than 2.81 µM. For the same compound, in data set [7], the inhibition at 10 µM stood at 82.1%.
For `O=C(O)c1cn(C2CC2)c2cc(N3CCNCC3)c(F)cc2c1=O` [CIPROFLOXACIN], the MIC in [2] came out at 0.26 µg/mL (≈ 0.785 µM). Moreover, in [3], the inhibition at 1 µM worked out at 99.6%. In [6], the MIC90 was 1.04 µg/mL (≈ 3.14 µM). Further, in [7], the inhibition at 10 µM is 99.7%.
